# Experiments:
# Assay type in all cases: cell-based, mouse
# [1] = test system: endogenous Il33 expression in PyMT breast cancer cell line; assay: Endogenous Il33 RNA in PyMT breast cancer cell line
# Experimental: Pam212 cells were grown at 37° C. in DMEM (Thermo Fisher Scientific, Waltham, Mass., catalog no. 11995065) supplemented with 10% fetal bovine serum (Thermo Fisher Scientific, catalog no. 26140079), 1× penicillin-streptomycin-glutamine (Thermo Fisher Scientific, catalog no. 10378016), 1×MEM non-essential amino acids solution (Thermo Fisher Scientific, catalog no. 11140050), 1×HEPES (Thermo Fisher Scientific, catalog no. 15630080) and 0.1% 2-Mercaptoethanol (Thermo Fisher Scientific, catalog no. 21985023). […]
# Mouse dorsal skin samples were homogenized and lysed in RLT lysis solution (QIAGEN, catalog no. 79216)/0.1% MeOH using Mini-BeadBeater-8 (BioSpec Products, Inc., Bartlesville, Okla.). Total RNA was extracted using an RNeasy micro kit and quantified using NanoDrop ND-1100 (NanoDrop Technologies, Wilmington, Del.). cDNA samples were synthesized from 1 μg of total RNA using Invitrogen SuperScripts III Reverse Transcriptase (Thermo Fisher Scientific, catalog no. 18080085). Expression levels of all cDNA samples were determined with LightCycler 480 system (Roche Molecular Systems Inc., Pleasanton, Calif.) using TaqMan Universal Master Mix II (Thermo Fisher Scientific, catalog no. 44-400-40). […]
# [2] = test system: p-IRF3 bindings to Il33 promoter region; assay: ChIP assay, p-IRF3 binding to Il33 promoter region in Pam212 cells; settings: compared to only Poly (I:C) treated group
# Experimental: Pam212 cells that had been transfected with plasmids were fixed in 1% formaldehyde (Millipore Sigma, catalog no. F8775) for 10 min and were washed by cold PBS. Cells were lysed with buffer contained with 2.5% of glycerol, 50 mM HEPES (pH 7.5), 150 mM NaCl, 0.5 mM EDTA, 0.5% NP-40 and 0.25% Triton X-100. After centrifugation at 2,000 rpm, cells lysate were resuspended in buffer A contained with 1 mM Tris/HCl (pH 7.9), 20 mM NaCl and 0.5 mM EDTA and incubated at room temperature for 10 min. Following the second centrifugation at 2,000 rpm, cells were sonicated in sonication buffer containing 10 mM HEPES, 1 mM EDTA and 0.5% SDS for 30 min to achieve chromatin fragmentation. Following centrifugation at 13,000 rpm, proteins were immunoprecipitated with HA antibody at 4° C. overnight. Next day, the samples were incubated with 30 μL 50% slurry of ChIP-Grade Protein G agarose beads (Cell Signaling Technology, catalog no. 9007S) for 2 hours. Samples were precipitated, washed three times with wash buffer containing 20 mM Tris/HCl (pH 7.9), 10 mM NaCl, 2 mM EDTA, 0.1% SDS and Triton X-100. After the last wash step, samples were eluted with 100 μL of TE buffer contained with 100 mM Tris/HCl (pH 8), 1 mM EDTA and 1% SDS for three times. […] Precipitated DNA was purified by CMP DNA Clean & Concentrator (ZYMO research, Irvine, Calif., catalog no. D5205) and subjected to quantitative PCR. […]
# [3] = test system: p-IRF3; assay: Poly (I:C) induced p-IRF3 expression in Pam212 cells; settings: Pam212 cells with Poly (I:C)
# Experimental: Cell lysates were prepared in LIPA buffer (Thermo Fisher Scientific, catalog no. 89900) consisting of 1× protease inhibitor cocktail, EDTA-free (Thermo Fisher Scientific, catalog no. A32955). Mice tissues were meshed and lysed by 0.1% TWEEN-(Millipore Sigma, catalog no. P1379) in PBS. Mice tissues were frozen by liquid nitrogen and thaw by incubation at 37° C. for further lysis. Cell lysates were sonicated for […], and then they were centrifugated at 13,200 rpm. After checking the protein concentration of each sample, the same amount of proteins was loaded into Mini-PROTEIN TGX™ Gels (BIO-RAD, Hercules, Calif., catalog no. 456-1083 or 456-1086) with 1× Tris/Glycine/SDS buffer (BIO-RAD, catalog no. 1610732). A few minutes later (according to protein size), they were transferred to Immobilon-P membrane (Millipore Sigma, catalog no. IPVH00010) with Transfer buffer (Boston Bioproducts, Ashland, Mass., catalog no. BP-190). Then, they were incubated 3% bovine serum albumin (Thermo Fisher Scientific, catalog no. BP1600) or 5% Skim milk (BD biosciences, San Jose, Calif., catalog no. 232100) in 1× Tris-Buffered Saline (Boston Bioproducts, catalog no. BM301X) containing 0.1% TWEEN, called TBS-T for 30 min. After the membrane was washed with TBS-T, they were subjected to immunoblot with proper antibodies for overnight at 4° C. […]
smiles,measurement,setting,value
O=C(O)C[C@H](O)C[C@H](O)/C=C/c1c(C2CC2)nc2ccccc2c1-c1ccc(F)cc1 [pitavastatin],endogenous Il33 RNA level,[1],inhibitory effect
same,Poly (I:C) induced p-IRF3 bindings to Il33 promoter region,[2],significantly reduced
same,level of p-IRF3,[3],decreased

# Reference: patent publication US20230255954A1, “INTERLEUKIN 33 (IL-33) INHIBITION FOR TREATMENT OF CANCER, FIBROSIS AND INFLAMMATION” (The General Hospital Corporation, priority 2020, published 2023)
